{"source": "patent US20250311727A1", "about": "“SUBSTITUTED 2-AMINOAZINES AND SALTS THEREOF, AND USE THEREOF AS HERBICIDAL ACTIVE SUBSTANCES” (BAYER AKTIENGESELLSCHAFT, priority 2022, published 2025)", "assay_type_in_all_cases": "in vivo", "key": {"Abutilon theophrasti [1]": {"test_system": "Abutilon theophrasti", "assay": "Post-emergence herbicidal efficacy at 80 g/ha, ABUTH", "conditions": "rated visually after about 3 weeks vs untreated controls, 100% = plants have died", "excerpt": "(§1) Unwanted plants/weeds: • ABUTH: Abutilon theophrasti • ALOMY: Alopecurus myosuroides • AMARE: Amaranthus retroflexus • DIGSA: Digitaria sanguinalis • ECHCG: Echinochloa crus-galli • KCHSC: Kochia scoparia • LOLRI: Lolium rigidum • MATIN: Matricaria inodora • POAAN: Poa annua • POLCO: Polygonum convolvulus • SETVI: Setaria viridis • STEME: Stellaria media • VERPE: Veronica persica • VIOTR: Viola tricolor A. Post-Emergence Herbicidal Efficacy at 320 g/ha\n(§2) Seeds of monocotyledonous and dicotyledonous weeds and crop plants were placed in sandy loam in plastic or organic planting pots, covered with soil and cultivated in a greenhouse under controlled growth conditions. 2 to 3 weeks after sowing, the test plants were treated at the one-leaf stage. The compounds of the invention, formulated in the form of wettable powders (WP) or as emulsion concentrates (EC), were then sprayed onto the green parts of the plants as aqueous suspension or emulsion with addition of 0.5% additive at a water application rate of 600 l/ha (converted). After the test plants had been kept in the greenhouse under optimum growth conditions for about 3 weeks, the activity of the preparations was rated visually in comparison to untreated controls. For example, 100% activity=the plants have died, 0% activity=like control plants.\n(§3) Tables B1 to B11 below show the effects of selected compounds of the general formula (I) according to Table 1 on various harmful plants and an application rate corresponding to 80 g/ha, which were obtained by the experimental procedure mentioned above."}, "Amaranthus retroflexus [2]": {"test_system": "Amaranthus retroflexus", "assay": "Post-emergence herbicidal efficacy at 80 g/ha, AMARE", "conditions": "rated visually after about 3 weeks vs untreated controls, 100% = plants have died", "summary_of_the_method": "(§4)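 Visual rating against untreated plants, about 3 weeks after treatment, on a 0–100% scale where 100% means dead plants. Compounds were formulated as WP or EC with 0.5% additive and applied at 600 l/ha water onto one-leaf-stage greenhouse weeds, sown 2–3 weeks earlier in sandy loam.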"}, "Digitaria sanguinalis [3]": {"test_system": "Digitaria sanguinalis", "assay": "Post-emergence herbicidal efficacy at 80 g/ha, DIGSA", "conditions": "rated visually after about 3 weeks vs untreated controls, 100% = plants have died", "excerpt": "as §1, §2, §3"}, "Echinochloa crus-galli [4]": {"test_system": "Echinochloa crus-galli", "assay": "Post-emergence herbicidal efficacy at 80 g/ha, ECHCG", "conditions": "rated visually after about 3 weeks vs untreated controls, 100% = plants have died", "excerpt": "as §1, §2, §3"}, "Kochia scoparia [5]": {"test_system": "Kochia scoparia", "assay": "Post-emergence herbicidal efficacy at 80 g/ha, KCHSC", "conditions": "rated visually after about 3 weeks vs untreated controls, 100% = plants have died", "summary_of_the_method": "as §4"}, "Setaria viridis [6]": {"test_system": "Setaria viridis", "assay": "Post-emergence herbicidal efficacy at 80 g/ha, SETVI", "conditions": "rated visually after about 3 weeks vs untreated controls, 100% = plants have died", "excerpt": "as §1, §2, §3"}, "Veronica persica [7]": {"test_system": "Veronica persica", "assay": "Post-emergence herbicidal efficacy at 80 g/ha, VERPE", "conditions": "rated visually after about 3 weeks vs untreated controls, 100% = plants have died", "summary_of_the_method": "as §4"}, "Viola tricolor [8]": {"test_system": "Viola tricolor", "assay": "Post-emergence herbicidal efficacy at 80 g/ha, VIOTR", "conditions": "rated visually after about 3 weeks vs untreated controls, 100% = plants have died", "summary_of_the_method": "as §4"}, "Abutilon theophrasti [9]": {"test_system": "Abutilon theophrasti", "assay": "Pre-emergence herbicide efficacy at 80 g/ha, ABUTH", "conditions": "scored visually after about 3 weeks vs untreated controls, 100% = plants have died", "excerpt": "as §1\n(§5) Seeds of monocotyledonous and dicotyledonous weed plants and crop plants were placed in plastic or organic planting pots and covered with soil. The compounds of the invention, formulated in the form of wettable powders (WP) or as emulsion concentrates (EC), were then applied to the surface of the covering soil as aqueous suspension or emulsion with addition of 0.5% additive at a water application rate equivalent to 600 l/ha. After the treatment, the pots were placed in a greenhouse and kept under good growth conditions for the test plants. After about 3 weeks, the efficacy of the preparations was scored visually in comparison with untreated controls as percentages. For example, 100% activity=the plants have died, 0% activity=like control plants.\n(§6) Tables D1 to D12 below show the effects of selected compounds of the general formula (I) according to Table 1 on various harmful plants and an application rate corresponding to 80 g/ha, which were obtained by the experimental procedure mentioned above."}, "Alopecurus myosuroides": {"test_system": "Alopecurus myosuroides", "assay": "Pre-emergence herbicide efficacy at 80 g/ha, ALOMY", "conditions": "scored visually after about 3 weeks vs untreated controls, 100% = plants have died", "excerpt": "as §1, §5, §6"}, "Amaranthus retroflexus [10]": {"test_system": "Amaranthus retroflexus", "assay": "Pre-emergence herbicide efficacy at 80 g/ha, AMARE", "conditions": "scored visually after about 3 weeks vs untreated controls, 100% = plants have died", "summary_of_the_method": "(§7)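 Visual % activity scored after roughly 3 weeks in the greenhouse against untreated pots, 100% meaning dead plants and 0% like controls. Treatment was soil-surface application right after sowing, at 80 g/ha. Formulated as WP or EC in water at 600 l/ha with 0.5% additive.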"}, "Digitaria sanguinalis [11]": {"test_system": "Digitaria sanguinalis", "assay": "Pre-emergence herbicide efficacy at 80 g/ha, DIGSA", "conditions": "scored visually after about 3 weeks vs untreated controls, 100% = plants have died", "summary_of_the_method": "as §7"}, "Echinochloa crus-galli [12]": {"test_system": "Echinochloa crus-galli", "assay": "Pre-emergence herbicide efficacy at 80 g/ha, ECHCG", "conditions": "scored visually after about 3 weeks vs untreated controls, 100% = plants have died", "excerpt": "as §1, §5, §6"}, "Lolium rigidum": {"test_system": "Lolium rigidum", "assay": "Pre-emergence herbicide efficacy at 80 g/ha, LOLRI", "conditions": "scored visually after about 3 weeks vs untreated controls, 100% = plants have died", "excerpt": "as §1\nas §5, with “control plants. […]” for “control plants.”"}, "Kochia scoparia [13]": {"test_system": "Kochia scoparia", "assay": "Pre-emergence herbicide efficacy at 80 g/ha, KCHSC", "conditions": "scored visually after about 3 weeks vs untreated controls, 100% = plants have died", "summary_of_the_method": "as §7"}, "Polygonum convolvulus": {"test_system": "Polygonum convolvulus", "assay": "Pre-emergence herbicide efficacy at 80 g/ha, POLCO", "conditions": "scored visually after about 3 weeks vs untreated controls, 100% = plants have died", "summary_of_the_method": "as §7"}, "Setaria viridis [14]": {"test_system": "Setaria viridis", "assay": "Pre-emergence herbicide efficacy at 80 g/ha, SETVI", "summary_of_the_method": "as §7"}, "Veronica persica [15]": {"test_system": "Veronica persica", "assay": "Pre-emergence herbicide efficacy at 80 g/ha, VERPE", "summary_of_the_method": "as §7"}, "Viola tricolor [16]": {"test_system": "Viola tricolor", "assay": "Pre-emergence herbicide efficacy at 80 g/ha, VIOTR", "summary_of_the_method": "as §7"}}}
{"smiles": "Fc1cnc(Nc2cccc(Cl)c2-c2cc(C(F)F)no2)nc1", "note": "[Example 1-62]", "values": [{"measurement": "Post-emergence efficacy at 80 g/ha against ABUTH in %", "setting": "Abutilon theophrasti [1]", "value": 90, "unit": "%"}, {"measurement": "Post-emergence efficacy at 80 g/ha against AMARE in %", "setting": "Amaranthus retroflexus [2]", "value": 100, "unit": "%"}, {"measurement": "Post-emergence efficacy at 80 g/ha against DIGSA in %", "setting": "Digitaria sanguinalis [3]", "value": 80, "unit": "%"}, {"measurement": "Post-emergence efficacy at 80 g/ha against ECHCG in %", "setting": "Echinochloa crus-galli [4]", "value": 80, "unit": "%"}, {"measurement": "Post-emergence efficacy at 80 g/ha against KCHSC in %", "setting": "Kochia scoparia [5]", "value": 100, "unit": "%"}, {"measurement": "Post-emergence efficacy at 80 g/ha against SETVI in %", "setting": "Setaria viridis [6]", "value": 100, "unit": "%"}, {"measurement": "Post-emergence efficacy at 80 g/ha against VERPE in %", "setting": "Veronica persica [7]", "value": 100, "unit": "%"}, {"measurement": "Post-emergence efficacy at 80 g/ha against VIOTR in %", "setting": "Viola tricolor [8]", "value": 100, "unit": "%"}, {"measurement": "Pre-emergence efficacy at 80 g/ha against ABUTH in %", "setting": "Abutilon theophrasti [9]", "value": 100, "unit": "%"}, {"measurement": "Pre-emergence efficacy at 80 g/ha against ALOMY in %", "setting": "Alopecurus myosuroides", "value": 100, "unit": "%"}, {"measurement": "Pre-emergence efficacy at 80 g/ha against AMARE in %", "setting": "Amaranthus retroflexus [10]", "value": 100, "unit": "%"}, {"measurement": "Pre-emergence efficacy at 80 g/ha against DIGSA in %", "setting": "Digitaria sanguinalis [11]", "value": 100, "unit": "%"}, {"measurement": "Pre-emergence efficacy at 80 g/ha against ECHCG in %", "setting": "Echinochloa crus-galli [12]", "value": 100, "unit": "%"}, {"measurement": "Pre-emergence efficacy at 80 g/ha against LOLRI in %", "setting": "Lolium rigidum", "value": 100, "unit": "%"}, {"measurement": "Pre-emergence efficacy at 80 g/ha against KCHSC in %", "setting": "Kochia scoparia [13]", "value": 100, "unit": "%"}, {"measurement": "Pre-emergence efficacy at 80 g/ha against POLCO in %", "setting": "Polygonum convolvulus", "value": 80, "unit": "%"}, {"measurement": "Pre-emergence efficacy against SETVI", "setting": "Setaria viridis [14]", "value": 100, "unit": "%"}, {"measurement": "Pre-emergence efficacy against VERPE", "setting": "Veronica persica [15]", "value": 100, "unit": "%"}, {"measurement": "Pre-emergence efficacy against VIOTR", "setting": "Viola tricolor [16]", "value": 100, "unit": "%"}]}
